Reference: US10208083B2 (priority 2015, dated 2019)
Marks after values point to notes of the source that are not given here.

Assays:
SKOV-3 = test: cells; assay type: cell-based, human; parameters: TGI: unit not given here; conditions: for GI50 / IC50: Homo sapiens, SK-OV-3, 48 h
K-562 = test: cells; assay type: cell-based, human; parameters: TGI: unit not given here; conditions: for GI50 / IC50: Homo sapiens, K562, 48 h
MOLT-4 = test: cells; assay type: cell-based, human; parameters: TGI: unit not given here; conditions: for GI50 / IC50: Homo sapiens, MOLT-4, 48 h
PC-3 = test: cells; assay type: cell-based, human; parameters: TGI: unit not given here; conditions: for GI50 / IC50: Homo sapiens, PC-3, 48 h
UWB1.289 + BRCA1 = test: cells; assay type: cell-based, human; parameters: TGI: unit not given here; conditions: for GI50 / IC50: Homo sapiens, UWB1289, 48 h
OVCAR-3 = test: cells; assay type: cell-based, human; parameters: TGI: unit not given here; conditions: for GI50 / IC50: Homo sapiens, OVCAR-3, 48 h
MCF-7 = test: cells; assay type: cell-based, human; parameters: TGI: unit not given here; conditions: for GI50 / IC50: Homo sapiens, MCF7, 48 h
UWB1.289 = test: cells; assay type: cell-based, human; parameters: TGI: unit not given here; conditions: for GI50 / IC50: Homo sapiens, UWB1289, 48 h
[1] = system: murine P388 lymphocytic leukemia; parameters: species or system mice; conditions: mouse, in vivo, ip; also: test concentration or dose not given here
T-47D = test: cells; assay type: cell-based, human; parameters: TGI: unit not given here; conditions: for GI50 / IC50: Homo sapiens, T47D, 48 h
[2] = system: SCOV-3 human ovarian cancer; conditions: in vivo; as to OS % on Day-70: test concentration or dose not given here; as to PFS % on Day-70: test concentration or dose not given here
in vivo = conditions: female, C57Bl/6, mouse, ip
C57Bl/6 mice = conditions: female, C57Bl/6, mouse, in vivo, ip

Row | Compound | TGI (SKOV-3) | GI50 (SKOV-3) | IC50 (SKOV-3) | TGI (K-562) | GI50 (K-562) | IC50 (K-562) | TGI (MOLT-4) | GI50 (MOLT-4) | IC50 (MOLT-4) | TGI (PC-3) | GI50 (PC-3) | IC50 (PC-3) | TGI (UWB1.289 + BRCA1) | GI50 (UWB1.289 + BRCA1) | IC50 (UWB1.289 + BRCA1) | TGI (OVCAR-3) | GI50 (OVCAR-3) | IC50 (OVCAR-3) | TGI (MCF-7) | GI50 (MCF-7) | also measured
1 | C[C@]12CC[C@H](OC(=O)Cc3ccc(N(CCCl)CCCl)cc3)C[C@@H]1CC[C@@H]1[C@@H]2CC[C@@]2(C)NC(=O)CC[C@@H]12 [ASE, 3beta-hydroxy-13alpha-amino-13,17-seco-5alpha-androstan-17-oic-13,17-lactam-[p-[bis (2-chloroethyl)amino]phenyl]acetate, reference compound] | 92 | 45 µM | > 100 µM | 78 | 9 µM | > 100 µM | 56 | 8 µM | 93 µM | 49 | 34 µM | 89 µM | >100 | 80 µM | > 100 µM | 52 | 36 µM | 64 µM | 57 | 29 µM | IC50 (MCF-7): 96 µM; TGI (UWB1.289): 30; GI50 (UWB1.289): 16 µM; IC50 (UWB1.289): 54 µM; Cures [1]: 0/6; MST ± SD [1]: 24 days; T/C % [1]: 267* %; TGI (T-47D): 47; GI50 (T-47D): 22 µM; IC50 (T-47D): 92 µM; OS % on Day-70 [2]: 80%; PFS % on Day-70 [2]: 40%; TI % at Day-35 [2]: 34%; LD50 (in vivo): 50 mg/kg; LD10 (C57Bl/6 mice): 30 mg/kg
2 | C[C@]12CC[C@H]3[C@@H](CCC4=CC(=O)NCC[C@@]43C)[C@@H]1CC[C@@H]2OC(=O)CCOc1ccc(N(CCCl)CCCl)cc1 [Compound 3] | 52 | 18 µM | 76 µM | 30 | 3 µM | 71 µM | 27 | 3 µM | 65 µM | 30 | 22 µM | 56 µM | 25 | 12 µM | 40 µM | 32 | 21 µM | 42 µM | 38 | 17 µM | IC50 (MCF-7): 70 µM; TGI (UWB1.289): 8; GI50 (UWB1.289): 3 µM; IC50 (UWB1.289): 20 µM; Cures [1]: 0/6; MST ± SD [1]: 39 days; T/C % [1]: 433* %; TGI (T-47D): 25; GI50 (T-47D): 10 µM; IC50 (T-47D): 66 µM; OS % on Day-70 [2]: 100%; PFS % on Day-70 [2]: 100%; TI % at Day-35 [2]: 62%; LD50 (in vivo): 150 mg/kg; LD10 (C57Bl/6 mice): 130 mg/kg
3 | C[C@]12CC[C@@H]3c4ccc(OC(=O)CCOc5ccc(N(CCCl)CCCl)cc5)cc4CC[C@H]3[C@@H]1CCC(=O)N2 [Compound 6] | 76 | 12 µM | > 100 µM | 30 | 5 µM | 50 µM | 28 | 5 µM | 50 µM | 29 | 16 µM | 51 µM | 66 | 18 µM | 88 µM | 40 | 30 µM | 56 µM | 36 | 15 µM | IC50 (MCF-7): 65 µM; TGI (UWB1.289): 20; GI50 (UWB1.289): 6 µM; IC50 (UWB1.289): 44 µM; Cures [1]: 0/6; MST ± SD [1]: 36 days; T/C % [1]: 400* %; TGI (T-47D): 30; GI50 (T-47D): 10 µM; IC50 (T-47D): 55 µM; OS % on Day-70 [2]: 100%; PFS % on Day-70 [2]: 100%; TI % at Day-35 [2]: 56%; LD50 (in vivo): 100 mg/kg; LD10 (C57Bl/6 mice): 80 mg/kg
4 | C[C@]12CC(=O)[C@H]3[C@@H](CCC4=CC(=O)NCC[C@@]43C)[C@@H]1CC[C@@H]2OC(=O)CCOc1ccc(N(CCCl)CCCl)cc1 [Compound 11] | 32 | 20 µM | 44 µM | 35 | 2 µM | 55 µM | 20 | 1.5 µM | 45 µM | 44 | 29 µM | 68 µM | 31 | 22 µM | 42 µM | 18 | 8 µM | 22 µM | 68 | 25 µM | IC50 (MCF-7): > 100 µM; TGI (UWB1.289): 20; GI50 (UWB1.289): 6 µM; IC50 (UWB1.289): 25 µM; Cures [1]: 1/6; MST ± SD [1]: 56 days; T/C % [1]: 622* %; TGI (T-47D): 59; GI50 (T-47D): 26 µM; IC50 (T-47D): 98 µM; OS % on Day-70 [2]: 100%; PFS % on Day-70 [2]: 100%; TI % at Day-35 [2]: 73%; LD50 (in vivo): 130 mg/kg; LD10 (C57Bl/6 mice): 100 mg/kg
5 | C[C@]12CC(=O)N[C@H]3[C@@H](CCC4=CC(=O)NCC[C@@]43C)[C@@H]1CC[C@@H]2OC(=O)CCOc1ccc(N(CCCl)CCCl)cc1 [Compound 16] | 46 | 20 µM | 70 µM | 47 | 7 µM | 65 µM | 36 | 4 µM | 56 µM | 29 | 16 µM | 51 µM | 32 | 12 µM | 50 µM | 20 | 9 µM | 35 µM | 36 | 15 µM | IC50 (MCF-7): 65 µM; TGI (UWB1.289): 28; GI50 (UWB1.289): 3 µM; IC50 (UWB1.289): 40 µM; Cures [1]: 0/6; MST ± SD [1]: 44 days; T/C % [1]: 489* %; TGI (T-47D): 30; GI50 (T-47D): 10 µM; IC50 (T-47D): 55 µM; OS % on Day-70 [2]: 100%; PFS % on Day-70 [2]: 100%; TI % at Day-35 [2]: 55%; LD50 (in vivo): 165 mg/kg; LD10 (C57Bl/6 mice): 140 mg/kg
